# Measurements as given in patent publication US8541418B2, “Inhibitors of polo-like kinase” (Elan Pharmaceutical, Inc., priority 2009, dated 2013).
# Where two headings read alike, the source gives them in different places.
# Tests used:
# Assay type in all cases: biochemical
# [1] = target: PLK1 (Homo sapiens, UniProt P53350); assay: PLK TR-FRET peptide assay, PLK1
# [2] = target: PLK2 (Homo sapiens, UniProt Q9NYY3); assay: PLK TR-FRET peptide assay, PLK2; conditions: for IC50: PLK TR-FRET peptide assay, read-out: Plk2 IC50
# Chain of PLK2 (Q9NYY3 whole entry): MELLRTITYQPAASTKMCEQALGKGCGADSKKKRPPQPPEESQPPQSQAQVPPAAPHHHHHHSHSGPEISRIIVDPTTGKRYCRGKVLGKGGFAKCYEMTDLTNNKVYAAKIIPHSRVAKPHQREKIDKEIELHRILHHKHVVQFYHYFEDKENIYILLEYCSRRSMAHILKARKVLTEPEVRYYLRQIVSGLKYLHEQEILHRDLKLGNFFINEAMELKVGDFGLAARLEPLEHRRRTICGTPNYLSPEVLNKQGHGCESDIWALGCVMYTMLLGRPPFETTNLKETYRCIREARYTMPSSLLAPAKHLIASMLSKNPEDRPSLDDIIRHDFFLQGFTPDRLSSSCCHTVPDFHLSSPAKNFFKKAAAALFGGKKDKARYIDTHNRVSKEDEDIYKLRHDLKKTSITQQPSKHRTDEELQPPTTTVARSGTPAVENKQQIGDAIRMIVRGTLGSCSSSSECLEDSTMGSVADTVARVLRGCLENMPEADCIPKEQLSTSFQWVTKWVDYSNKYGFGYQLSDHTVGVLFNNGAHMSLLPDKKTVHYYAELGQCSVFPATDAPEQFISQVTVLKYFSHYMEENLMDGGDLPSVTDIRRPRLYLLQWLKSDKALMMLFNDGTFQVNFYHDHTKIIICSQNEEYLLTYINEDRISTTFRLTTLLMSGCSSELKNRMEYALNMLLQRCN
# [3] = target: PLK3 (Homo sapiens, UniProt Q9H4B4); assay: PLK TR-FRET peptide assay, PLK3
# Chain of PLK3 (Q9H4B4 whole entry): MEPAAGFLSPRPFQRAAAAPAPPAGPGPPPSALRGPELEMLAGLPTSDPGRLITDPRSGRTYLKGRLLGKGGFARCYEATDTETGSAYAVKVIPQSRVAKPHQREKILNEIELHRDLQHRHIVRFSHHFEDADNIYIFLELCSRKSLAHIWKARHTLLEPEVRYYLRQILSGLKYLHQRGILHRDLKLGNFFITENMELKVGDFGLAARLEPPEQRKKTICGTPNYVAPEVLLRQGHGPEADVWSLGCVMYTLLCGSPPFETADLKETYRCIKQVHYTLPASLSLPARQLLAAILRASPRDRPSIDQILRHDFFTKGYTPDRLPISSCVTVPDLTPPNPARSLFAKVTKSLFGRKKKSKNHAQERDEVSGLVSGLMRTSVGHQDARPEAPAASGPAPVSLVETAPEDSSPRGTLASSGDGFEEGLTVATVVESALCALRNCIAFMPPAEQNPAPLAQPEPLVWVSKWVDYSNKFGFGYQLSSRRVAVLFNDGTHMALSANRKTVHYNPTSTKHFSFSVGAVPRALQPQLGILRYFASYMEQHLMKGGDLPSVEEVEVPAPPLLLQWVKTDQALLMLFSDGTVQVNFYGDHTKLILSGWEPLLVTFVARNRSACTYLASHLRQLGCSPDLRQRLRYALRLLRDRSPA
# [4] = GST-PLK3, 15 min reaction, read-out: Plk3 IC50
# Chain of PLK1 (P53350 whole entry): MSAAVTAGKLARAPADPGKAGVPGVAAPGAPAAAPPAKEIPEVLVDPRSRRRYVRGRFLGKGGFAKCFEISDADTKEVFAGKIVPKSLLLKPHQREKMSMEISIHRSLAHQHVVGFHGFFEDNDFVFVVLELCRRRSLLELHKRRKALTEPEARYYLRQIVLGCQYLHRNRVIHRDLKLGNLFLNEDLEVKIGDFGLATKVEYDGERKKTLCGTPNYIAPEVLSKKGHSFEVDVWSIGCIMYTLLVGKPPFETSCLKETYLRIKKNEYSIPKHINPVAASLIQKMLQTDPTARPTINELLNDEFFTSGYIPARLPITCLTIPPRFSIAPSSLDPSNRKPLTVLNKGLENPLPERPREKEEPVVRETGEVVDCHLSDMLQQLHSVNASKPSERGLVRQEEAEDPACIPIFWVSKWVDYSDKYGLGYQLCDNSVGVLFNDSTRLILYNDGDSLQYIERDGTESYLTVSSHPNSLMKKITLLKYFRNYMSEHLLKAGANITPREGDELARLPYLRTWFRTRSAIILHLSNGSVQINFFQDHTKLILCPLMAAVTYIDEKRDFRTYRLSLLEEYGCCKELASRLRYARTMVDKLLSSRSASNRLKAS
"IC50 ([1]; GST-PLK1, 60 min reaction) [µM]","IC50 ([2]; GST-PLK2, 60 min reaction) [µM]","IC50 [3, 4] [µM]",IC50 ([1]; GST-PLK1) [µM],IC50 ([2]; GST-PLK2) [µM],relative PLK2 activity of the enantiomers ([2]; compared with the opposite enantiomer),"IC50 ([3]; GST-PLK3, read-out: Plk3 IC50) [µM]",SMILES
1 to 10,< 1,10 to 50,–,–,–,–,"CC[C@@H]1C(=O)N(C)c2cnc(-n3ccnc3-c3ccc(F)c(F)c3)nc2N1C1CCOC1 (stereo partly drawn) [Example 191, (7R)-2-(2-(3,4-difluorophenyl)-1H-imidazol-1-yl)-7-ethyl-5-methyl-8-(tetrahydrofuran-3-yl)-7,8-dihydropteridin-6(5H)-one]"
1 to 10,< 1,1 to 10,–,–,–,–,"[2H]C([2H])([2H])N1C(=O)C(C([2H])([2H])C([2H])([2H])[2H])N(C([2H])(C([2H])([2H])[2H])C([2H])([2H])[2H])c2nc(-n3ccnc3-c3ccc(C(F)(F)F)cc3)ncc21 (stereo not shown) [Example 161, 7-perdeuteroethyl-8-perdeuteroisopropyl-5-trideuteromethyl-2-(2-(4-(trifluoromethyl)phenyl)-1H-imidazol-1-yl)-7,8-dihydropteridin-6(5H)-one]"
< 1,< 1,1 to 10,–,–,–,–,"[2H]C([2H])([2H])N1C(=O)C(C([2H])([2H])C([2H])([2H])[2H])N(C([2H])(C([2H])([2H])[2H])C([2H])([2H])[2H])c2nc(-c3c[nH]nc3-c3ccccc3)ncc21 (stereo not shown) [Example 165, 7-perdeuteroethyl-8-perdeuteroisopropyl-5-trideuteromethyl-2-(3-phenyl-1H-pyrazol-4-yl)-7,8-dihydropteridin-6(5H)-one]"
< 1,< 1,1 to 10,–,–,–,–,"CC[C@@H]1C(=O)N(C)c2cnc(-n3ccnc3-c3cccc(Br)c3)nc2N1C(C)C [Example 220, (R)-2-(2-(3-bromophenyl)-1H-imidazol-1-yl)-7-ethyl-8-isopropyl-5-methyl-7,8-dihydropteridin-6(5H)-one]"
1 to 10,< 1,1 to 10,–,–,–,–,"CC[C@@H]1C(=O)N(C)c2cnc(-c3ccncc3NC(=O)c3ccccc3)nc2N1C1CCCC1 [Example 102, (R)—N-(4-(8-cyclopentyl-7-ethyl-5-methyl-6-oxo-5,6,7,8-tetrahydropteridin-2-yl)pyridin-3-yl)benzamide]"
> 50,10 to 50,> 50,–,–,–,–,"CC[C@@H]1C(=O)N(C)c2cnc(-c3ccncc3CN)nc2N1C(C)C [Example 126, (R)-2-(3-(aminomethyl)pyridin-4-yl)-7-ethyl-8-isopropyl-5-methyl-7,8-dihydropteridin-6(5H)-one]"
> 50,10 to 50,> 50,–,–,–,–,"CC[C@@H]1C(=O)N(C)c2cnc(-c3ccncc3CNC(C)=O)nc2N1C(C)C [Example 129, (R)—N-((4-(7-ethyl-8-isopropyl-5-methyl-6-oxo-5,6,7,8-tetrahydropteridin-2-yl)pyridin-3-yl)methyl)acetamide]"
10 to 50,1 to 10,> 50,–,–,–,–,"[2H]C([2H])([2H])N1C(=O)[C@H](C([2H])([2H])C([2H])([2H])[2H])N(C([2H])(C([2H])([2H])[2H])C([2H])([2H])[2H])c2nc(-n3ccnc3-c3ccc(F)cc3)ncc21 [Example 199, (S)-7-perdeuteroethyl-2-(2-(4-fluorophenyl)-1H-imidazol-1-yl)-8-perdeuteroisopropyl-5-trideuteromethyl-7,8-dihydropteridin-6(5H)-one]"
1 to 10,< 1,> 50,–,–,–,–,"CC[C@@H]1C(=O)N(C)c2cnc(-n3ccnc3C)nc2N1C1CCCC1 [Example 27, (R)-8-cyclopentyl-7-ethyl-5-methyl-2-(2-methyl-1H-imidazol-1-yl)-7,8-dihydropteridin-6(5H)-one]"
< 1,< 1,< 1,–,–,–,–,"CC[C@@H]1C(=O)N(C)c2cnc(-c3cn[nH]c3-c3cscn3)nc2N1C1CCCC1 [Example 307, (R)-8-cyclopentyl-7-ethyl-5-methyl-2-(5-(thiazol-4-yl)-1H-pyrazol-4-yl)-7,8-dihydropteridin-6(5H)-one]"
> 50,1 to 10,> 50,–,–,–,–,"CC[C@@H]1C(=O)N(C)c2cnc(-n3ccnc3-c3ccc(F)c(F)c3)nc2N1C1COC1 [Example 341, (R)-2-(2-(3,4-difluorophenyl)-1H-imidazol-1-yl)-7-ethyl-5-methyl-8-(oxetan-3-yl)-7,8-dihydropteridin-6(5H)-one]"
10 to 50,< 1,10 to 50,–,–,–,–,"CC[C@@H]1C(=O)N(C)c2cnc(-c3ccncc3-c3ccccc3)nc2N1C1CC1 [Example 142, (R)-8-cyclopropyl-7-ethyl-5-methyl-2-(3-phenylpyridin-4-yl)-7,8-dihydropteridin-6(5H)-one]"
1 to 10,< 1,1 to 10,–,–,–,–,"[2H]C([2H])([2H])N1C(=O)C(C([2H])([2H])C([2H])([2H])[2H])N(C([2H])(C([2H])([2H])[2H])C([2H])([2H])[2H])c2nc(-n3ccnc3-c3ccc(F)cc3)ncc21 (racemic) [Example 162, 7-perdeuteroethyl-2-(2-(4-fluorophenyl)-1H-imidazol-1-yl)-8-perdeuteroisopropyl-5-trideuteromethyl-7,8-dihydropteridin-6(5H)-one]"
1 to 10,< 1,10 to 50,–,–,–,–,"CC[C@@H]1C(=O)N(C)c2cnc(-n3ccnc3-c3cc(F)cc(C(F)(F)F)c3)nc2N1C1CCC1 [Example 174, (R)-8-cyclobutyl-7-ethyl-2-(2-(3-fluoro-5-(trifluoromethyl)phenyl)-1H-imidazol-1-yl)-5-methyl-7,8-dihydropteridin-6(5H)-one]"
< 1,< 1,1 to 10,–,–,–,–,"CC[C@@H]1CC[C@@]2(CC)C(=O)N(C)c3cnc(-c4cn[nH]c4-c4nccs4)nc3N12 [Example 340, (6aS,9R)-6a,9-diethyl-5-methyl-2-(5-(thiazol-2-yl)-1H-pyrazol-4-yl)-6a,7,8,9-tetrahydropyrrolo[2,1-h]pteridin-6(5H)-one]"
< 1,< 1,1 to 10,–,–,–,–,"CC[C@@H]1C(=O)N(C)c2cnc(-n3ccnc3-c3cccc(F)c3F)nc2N1CCC(F)(F)F [Example 254, (R)-2-(2-(2,3-difluorophenyl)-1H-imidazol-1-yl)-7-ethyl-5-methyl-8-(3,3,3-trifluoropropyl)-7,8-dihydropteridin-6(5H)-one]"
> 50,10 to 50,> 50,–,–,–,–,"CC[C@@H]1C(=O)N(C)c2cnc(-c3cccc(OCc4ccccc4)c3)nc2N1C1CCCC1 [Example 72, (R)-2-(3-(benzyloxy)phenyl)-8-cyclopentyl-7-ethyl-5-methyl-7,8-dihydropteridin-6(5H)-one]"
< 1,< 1,> 50,–,–,–,–,"CC[C@]1(C)C(=O)N(C)c2cnc(-c3cn[nH]c3-c3nccs3)nc2N1CCC(F)(F)F [Example 310, (R)-7-ethyl-5,7-dimethyl-2-(5-(thiazol-2-yl)-1H-pyrazol-4-yl)-8-(3,3,3-trifluoropropyl)-7,8-dihydropteridin-6(5H)-one]"
> 50,1 to 10,> 50,–,–,–,–,"CC[C@]12CCCCN1c1nc(-n3ccnc3-c3cccc(F)c3F)ncc1N(C)C2=O [Example 261, (R)-2-(2-(2,3-difluorophenyl)-1H-imidazol-1-yl)-6a-ethyl-5-methyl-7,8,9,10-tetrahydro-5H-pyrido[2,1-h]pteridin-6(6aH)-one]"
> 50,10 to 50,10 to 50,–,–,–,–,"CC[C@@]12CCCN1c1nc(-n3ncnc3C#Cc3ccccc3)ncc1N(C)C2=O [Example 235, (S)-6a-ethyl-5-methyl-2-(5-(phenylethynyl)-1H-1,2,4-triazol-1-yl)-6a,7,8,9-tetrahydropyrrolo[2,1-h]pteridin-6(5H)-one]"
10 to 50,< 1,> 50,–,–,–,–,"CC[C@@H]1C(=O)N(C)c2cnc(-n3ccnc3-c3ccc(C(F)(F)F)cc3)nc2N1C1CCC1 [Example 171, (R)-8-cyclobutyl-7-ethyl-5-methyl-2-(2-(4-(trifluoromethyl)phenyl)-1H-imidazol-1-yl)-7,8-dihydropteridin-6(5H)-one]"
–,–,–,< 1,< 1,more active compound,1 to 10,"CC[C@@H]1C(=O)N(C)c2cnc(-c3cn[nH]c3-c3nccs3)nc2N1c1ccc(F)c(F)c1 [Example 395, (R)-8-(3,4-difluorophenyl)-7-ethyl-5-methyl-2-(5-(thiazol-2-yl)-1H-pyrazol-4-yl)-7,8-dihydropteridin-6(5H)-one]"
10 to 50,1 to 10,1 to 10,–,–,–,–,"CC[C@@]12CCCN1c1nc(-c3nccnc3-c3ccccc3)ncc1N(C)C2=O [Example 316, (S)-6a-ethyl-5-methyl-2-(3-phenylpyrazin-2-yl)-6a,7,8,9-tetrahydropyrrolo[2,1-h]pteridin-6(5H)-one]"
1 to 10,< 1,1 to 10,–,–,–,–,"CC[C@@H]1C(=O)N(C)c2cnc(-n3ccnc3-c3ccc(F)cc3F)nc2N1C1CCOC1 (stereo partly drawn) [Example 268, (7R)-2-(2-(2,4-difluorophenyl)-1H-imidazol-1-yl)-7-ethyl-5-methyl-8-(tetrahydrofuran-3-yl)-7,8-dihydropteridin-6(5H)-one]"
1 to 10,< 1,10 to 50,–,–,–,–,"CC[C@@H]1C(=O)N(C)c2cnc(-c3ccncc3NC(C)=O)nc2N1C1CCCC1 [Example 115, (R)—N-(4-(8-cyclopentyl-7-ethyl-5-methyl-6-oxo-5,6,7,8-tetrahydropteridin-2-yl)pyridin-3-yl)acetamide]"
10 to 50,< 1,> 50,–,–,–,–,"CC[C@@]12CCCN1c1nc(-n3ccnc3-c3cccc(OC(F)(F)F)c3)ncc1N(C)C2=O [Example 251, (S)-6a-ethyl-5-methyl-2-(2-(3-(trifluoromethoxy)phenyl)-1H-imidazol-1-yl)-6a,7,8,9-tetrahydropyrrolo[2,1-h]pteridin-6(5H)-one]"
